# Measured values taken from publication PMC9841523 (Journal of Medicinal Chemistry, 2022).
# Experiments:
# NCI-H2122 NSCLC CDX = NCI-H2122 NSCLC CDX model; type: in vivo; conditions: RMC-6272 10 mg/kg ip once weekly; sotorasib 100 mg/kg po qd; single agents or combination
# Method: groups when mean tumor volume reached 400–600 mm 3. Tumor and plasma samples were collected for PK and PD analysis at indicated time points after a single dose of indicated […]
# doses. Everolimus was formulated in v/v/v/, 30/5/65 Propylene glycol/Tween 80/H 2O.
# NCI-H2122 xenograft studies. Female Balb/c nude mice (Beijing V.R Biotechnology Co. […]
# per inoculation. When mean tumor volume reached between 150–200 mm 3, mice were […]
# Transcutol/Solutol HS 15/H 2O. Sotorasib (AMG 510) was administered by oral gavage at 100 mg/kg daily and formulated in 2% (w/v) HPMC E-50, 0.5% Tween 80 in 50 mM sodium citrate […]
# In vivo pharmacodynamics. Snap frozen tumors collected were homogenized with MSD complete lysis buffer (as prepared according to Meso Scale Discovery kit protocol) using PreCellys Bead Shaker (Bertin Instruments) according to manufacturer's protocol. Phospho-4E-BP1(Thr37/46) Whole Cell Lysate Kit (Meso Scale Discovery) was used to quantify phosphorylation of 4E-BP1 in the tumors according to manufacturer's protocol.
# Expression and purification of FKBP12, FRB domain, and RHEB-GTPγS. DNA pET28
# Wnk1, Wnk2, Wnk4 = experiment: KiNativ kinase panel; type: cell-based, human; conditions: 1 μM; MCF-7 Cells; Activation Loop; IGDLGLATLKR
# [1] = target: T1, norepinephrine transporter(h) (antagonist radioligand) (Homo sapiens, UniProt P23975); experiment: Eurofins Safety Screen 44; type: binding; conditions: read-out: % Inhibition of Control Values
# T1 construct: purchased ActivX Biosciences (KiNativ)
# PDE3A (h) = target: T2, PDE3A (h) (Homo sapiens, UniProt Q14432); experiment: Eurofins Safety Screen 44; type: biochemical; conditions: read-out: % Inhibition of Control Values
# T2 construct: Eurofins (ran the panel)
# [2] = target: T3, α2A(h) (antagonist radioligand) (Homo sapiens, UniProt P08913); experiment: Eurofins Safety Screen 44; type: binding; conditions: read-out: % Inhibition of Control Values
# T3 construct: purchased ActivX Biosciences (KiNativ)
# [3] = target: T4, ETA(h) (agonist radioligand) (Homo sapiens, UniProt P25101); experiment: Eurofins Safety Screen 44; type: binding; conditions: read-out: % Inhibition of Control Values
# T4 construct: purchased ActivX Biosciences (KiNativ)
# [4] = target: T5, V1a(h) (agonist radioligand) (Homo sapiens, UniProt P37288); experiment: Eurofins Safety Screen 44; type: binding; conditions: read-out: % Inhibition of Control Values
# T5 construct: purchased ActivX Biosciences (KiNativ)
# [5] = target: T6, CB1(h) (agonist radioligand) (Homo sapiens, UniProt P21554); experiment: Eurofins Safety Screen 44; type: binding; conditions: read-out: % Inhibition of Control Values
# T6 construct: purchased ActivX Biosciences (KiNativ)
# [6] = target: T7, CCK1 (CCKA) (h) (agonist radioligand) (Homo sapiens, UniProt P32238); experiment: Eurofins Safety Screen 44; type: binding; conditions: read-out: % Inhibition of Control Values
# T7 construct: purchased ActivX Biosciences (KiNativ)
# [7] = target: T8, N neuronal α4β2 (h) (agonist radioligand) (Homo sapiens, UniProt P17787+P43681); experiment: Eurofins Safety Screen 44; type: binding; conditions: read-out: % Inhibition of Control Values
# T8 construct: purchased ActivX Biosciences (KiNativ)
# [8] = target: T9, kappa (h) (KOP) (agonist radioligand) (Homo sapiens, UniProt P41145); experiment: Eurofins Safety Screen 44; type: binding; conditions: read-out: % Inhibition of Control Values
# T9 construct: purchased ActivX Biosciences (KiNativ)
# [9] = target: T10, β2(h) (antagonist radioligand) (Homo sapiens, UniProt P07550); experiment: Eurofins Safety Screen 44; type: binding; conditions: read-out: % Inhibition of Control Values
# T10 construct: purchased ActivX Biosciences (KiNativ)
# [10] = target: T11, α1A(h) (antagonist radioligand) (Homo sapiens, UniProt P35348); experiment: Eurofins Safety Screen 44; type: binding; conditions: read-out: % Inhibition of Control Values
# T11 construct: purchased ActivX Biosciences (KiNativ)
# [11] = system: NMDA (antagonist radioligand); experiment: Eurofins Safety Screen 44; type: binding; conditions: 10 µM
# [12] = system: Na+ channel (site 2) (antagonist radioligand); experiment: Eurofins Safety Screen 44; type: binding; conditions: 10 µM
# p-P70S6K Thr389 = experiment: AlphaLISA/MSD analysis of S6K phosphorylation in MDA-MB-468 cells; type: cell-based; conditions: Homo sapiens, MDA-MB-468, read-out: pS6K IC50
# [13] = target: T12, β1(h) (agonist radioligand) (Homo sapiens, UniProt P08588); experiment: Eurofins Safety Screen 44; type: binding; conditions: read-out: % Inhibition of Control Values
# T12 construct: purchased ActivX Biosciences (KiNativ)
# Lck kinase (h) = target: T13, Lck kinase (h) (Homo sapiens, UniProt P06239); experiment: Eurofins Safety Screen 44; type: biochemical; conditions: read-out: % Inhibition of Control Values
# T13 construct: Eurofins (ran the panel)
# [14] = target: T14, D2S(h) (agonist radioligand) (Homo sapiens, UniProt P14416); experiment: Eurofins Safety Screen 44; type: binding; conditions: read-out: % Inhibition of Control Values
# T14 construct: purchased ActivX Biosciences (KiNativ)
# [15] = target: T15, 5-HT2B(h) (agonist radioligand) (Homo sapiens, UniProt P41595); experiment: Eurofins Safety Screen 44; type: binding; conditions: read-out: % Inhibition of Control Values
# T15 construct: purchased ActivX Biosciences (KiNativ)
# [16] = target: T16, 5-HT transporter (h) (antagonist radioligand) (Homo sapiens, UniProt P31645); experiment: Eurofins Safety Screen 44; type: binding; conditions: read-out: % Inhibition of Control Values
# T16 construct: Eurofins (ran the panel)
# [17] = target: T17, 5-HT3(h) (antagonist radioligand) (Homo sapiens, UniProt P46098); experiment: Eurofins Safety Screen 44; type: binding; conditions: read-out: % Inhibition of Control Values
# T17 construct: purchased ActivX Biosciences (KiNativ)
# [18] = target: T18, M2 (h) (antagonist radioligand) (Homo sapiens, UniProt P08172); experiment: Eurofins Safety Screen 44; type: binding; conditions: read-out: % Inhibition of Control Values
# T18 construct: purchased ActivX Biosciences (KiNativ)
# [19] = target: T19, 5-HT1B (h) (antagonist radioligand) (Homo sapiens, UniProt P28222); experiment: Eurofins Safety Screen 44; type: binding; conditions: read-out: % Inhibition of Control Values
# T19 construct: purchased ActivX Biosciences (KiNativ)
# [20] = target: T20, CB2(h) (agonist radioligand) (Homo sapiens, UniProt P34972); experiment: Eurofins Safety Screen 44; type: binding; conditions: read-out: % Inhibition of Control Values
# T20 construct: purchased ActivX Biosciences (KiNativ)
# T20 sequence (P34972 whole entry): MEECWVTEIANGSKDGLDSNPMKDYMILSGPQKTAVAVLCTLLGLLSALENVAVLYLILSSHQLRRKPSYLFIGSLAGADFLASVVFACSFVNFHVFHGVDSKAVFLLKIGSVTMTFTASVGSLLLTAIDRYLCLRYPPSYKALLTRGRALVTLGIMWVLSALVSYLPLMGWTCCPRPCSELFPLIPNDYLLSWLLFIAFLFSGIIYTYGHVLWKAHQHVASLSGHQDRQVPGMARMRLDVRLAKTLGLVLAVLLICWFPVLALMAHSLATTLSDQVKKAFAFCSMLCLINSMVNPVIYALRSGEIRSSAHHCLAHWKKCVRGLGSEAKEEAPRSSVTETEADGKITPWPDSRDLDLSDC
# T11 sequence (P35348 whole entry): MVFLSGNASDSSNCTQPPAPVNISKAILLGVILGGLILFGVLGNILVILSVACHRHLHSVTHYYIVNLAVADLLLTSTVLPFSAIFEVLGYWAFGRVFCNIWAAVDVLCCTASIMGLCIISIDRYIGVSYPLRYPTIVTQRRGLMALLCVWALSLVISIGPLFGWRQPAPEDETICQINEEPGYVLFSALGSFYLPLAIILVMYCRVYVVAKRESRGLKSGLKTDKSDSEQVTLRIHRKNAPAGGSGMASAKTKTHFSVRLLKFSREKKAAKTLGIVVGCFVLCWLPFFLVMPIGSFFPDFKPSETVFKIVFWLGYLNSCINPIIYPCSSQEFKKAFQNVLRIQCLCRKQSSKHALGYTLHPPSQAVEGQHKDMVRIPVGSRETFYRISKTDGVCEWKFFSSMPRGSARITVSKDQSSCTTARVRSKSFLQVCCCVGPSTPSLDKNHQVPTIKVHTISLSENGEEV
# T10 sequence (P07550 whole entry): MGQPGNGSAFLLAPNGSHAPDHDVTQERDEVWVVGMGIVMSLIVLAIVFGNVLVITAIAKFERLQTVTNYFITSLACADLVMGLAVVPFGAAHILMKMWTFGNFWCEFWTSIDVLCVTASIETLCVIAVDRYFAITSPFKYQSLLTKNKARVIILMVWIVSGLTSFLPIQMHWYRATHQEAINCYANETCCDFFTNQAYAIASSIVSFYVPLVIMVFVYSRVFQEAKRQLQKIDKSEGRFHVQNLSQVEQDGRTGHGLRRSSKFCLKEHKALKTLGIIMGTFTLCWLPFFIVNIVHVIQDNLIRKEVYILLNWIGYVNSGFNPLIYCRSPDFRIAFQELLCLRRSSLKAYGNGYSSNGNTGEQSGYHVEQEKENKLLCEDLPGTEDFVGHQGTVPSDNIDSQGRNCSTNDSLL
# T16 sequence (P31645 whole entry): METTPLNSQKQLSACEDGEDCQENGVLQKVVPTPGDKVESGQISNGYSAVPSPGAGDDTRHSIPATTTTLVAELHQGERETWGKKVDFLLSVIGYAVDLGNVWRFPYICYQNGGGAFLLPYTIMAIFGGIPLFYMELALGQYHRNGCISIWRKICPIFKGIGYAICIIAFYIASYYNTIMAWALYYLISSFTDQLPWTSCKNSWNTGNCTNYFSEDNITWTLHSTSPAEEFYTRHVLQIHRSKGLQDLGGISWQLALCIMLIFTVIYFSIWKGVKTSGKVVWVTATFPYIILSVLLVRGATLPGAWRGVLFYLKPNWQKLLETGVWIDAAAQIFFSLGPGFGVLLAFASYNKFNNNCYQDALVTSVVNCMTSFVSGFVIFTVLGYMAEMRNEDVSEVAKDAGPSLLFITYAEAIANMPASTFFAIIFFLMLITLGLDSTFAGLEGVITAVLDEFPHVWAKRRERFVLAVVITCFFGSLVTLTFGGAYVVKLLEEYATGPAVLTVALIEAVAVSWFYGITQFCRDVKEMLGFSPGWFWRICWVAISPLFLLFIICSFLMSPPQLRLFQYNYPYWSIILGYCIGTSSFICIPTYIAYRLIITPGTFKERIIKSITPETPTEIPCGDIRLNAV
# T17 sequence (P46098 24-478): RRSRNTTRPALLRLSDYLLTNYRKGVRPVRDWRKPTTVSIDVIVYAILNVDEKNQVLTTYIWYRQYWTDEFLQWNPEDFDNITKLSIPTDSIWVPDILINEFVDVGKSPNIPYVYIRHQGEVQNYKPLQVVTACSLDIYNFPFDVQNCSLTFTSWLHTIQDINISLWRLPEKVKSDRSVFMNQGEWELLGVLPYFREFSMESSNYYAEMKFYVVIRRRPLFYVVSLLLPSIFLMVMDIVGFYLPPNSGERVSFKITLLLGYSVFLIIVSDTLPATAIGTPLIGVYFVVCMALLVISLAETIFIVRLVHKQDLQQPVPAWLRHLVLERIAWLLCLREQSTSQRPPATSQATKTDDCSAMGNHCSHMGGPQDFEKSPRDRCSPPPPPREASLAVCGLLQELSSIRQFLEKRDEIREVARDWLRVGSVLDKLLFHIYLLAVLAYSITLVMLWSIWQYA
# T18 sequence (P08172 whole entry): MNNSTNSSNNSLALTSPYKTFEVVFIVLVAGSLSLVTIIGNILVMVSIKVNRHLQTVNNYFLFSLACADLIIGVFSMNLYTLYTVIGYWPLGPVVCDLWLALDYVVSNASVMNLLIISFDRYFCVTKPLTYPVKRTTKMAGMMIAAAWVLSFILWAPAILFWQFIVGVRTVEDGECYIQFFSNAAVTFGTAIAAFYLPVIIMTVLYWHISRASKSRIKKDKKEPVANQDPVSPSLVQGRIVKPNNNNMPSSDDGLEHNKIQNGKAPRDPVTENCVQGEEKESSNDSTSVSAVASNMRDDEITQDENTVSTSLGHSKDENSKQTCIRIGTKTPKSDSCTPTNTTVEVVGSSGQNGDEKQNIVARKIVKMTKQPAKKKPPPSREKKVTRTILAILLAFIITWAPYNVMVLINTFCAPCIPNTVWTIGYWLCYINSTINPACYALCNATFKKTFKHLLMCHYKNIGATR
# T1 sequence (P23975 whole entry): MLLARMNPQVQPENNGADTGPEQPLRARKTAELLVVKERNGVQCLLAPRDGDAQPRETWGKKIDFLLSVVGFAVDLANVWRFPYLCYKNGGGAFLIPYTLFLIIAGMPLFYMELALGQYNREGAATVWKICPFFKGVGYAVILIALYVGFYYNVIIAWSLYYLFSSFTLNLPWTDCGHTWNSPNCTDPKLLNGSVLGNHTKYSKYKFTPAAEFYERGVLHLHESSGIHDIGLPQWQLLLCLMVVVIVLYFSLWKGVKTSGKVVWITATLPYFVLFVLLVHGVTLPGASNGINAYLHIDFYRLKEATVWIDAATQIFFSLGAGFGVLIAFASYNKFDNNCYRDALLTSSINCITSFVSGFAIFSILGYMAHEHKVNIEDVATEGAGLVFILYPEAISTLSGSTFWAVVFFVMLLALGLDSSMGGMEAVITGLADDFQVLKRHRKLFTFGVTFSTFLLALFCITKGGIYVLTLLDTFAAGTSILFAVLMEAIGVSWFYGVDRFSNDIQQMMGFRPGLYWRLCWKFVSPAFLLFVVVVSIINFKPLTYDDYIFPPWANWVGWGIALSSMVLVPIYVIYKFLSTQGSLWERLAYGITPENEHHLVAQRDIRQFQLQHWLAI
# T12 sequence (P08588 whole entry): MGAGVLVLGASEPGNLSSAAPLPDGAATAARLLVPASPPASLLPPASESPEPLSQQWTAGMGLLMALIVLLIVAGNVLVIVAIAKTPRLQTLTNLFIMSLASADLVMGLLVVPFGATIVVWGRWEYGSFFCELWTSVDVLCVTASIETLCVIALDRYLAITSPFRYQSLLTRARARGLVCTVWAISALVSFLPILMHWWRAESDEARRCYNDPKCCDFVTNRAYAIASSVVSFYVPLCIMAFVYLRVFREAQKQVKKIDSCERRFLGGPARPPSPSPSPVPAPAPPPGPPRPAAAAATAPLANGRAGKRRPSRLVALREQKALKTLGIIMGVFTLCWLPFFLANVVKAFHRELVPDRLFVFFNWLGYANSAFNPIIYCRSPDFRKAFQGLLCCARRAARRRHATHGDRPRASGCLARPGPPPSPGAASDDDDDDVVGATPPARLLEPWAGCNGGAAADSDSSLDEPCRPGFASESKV
# T15 sequence (P41595 whole entry): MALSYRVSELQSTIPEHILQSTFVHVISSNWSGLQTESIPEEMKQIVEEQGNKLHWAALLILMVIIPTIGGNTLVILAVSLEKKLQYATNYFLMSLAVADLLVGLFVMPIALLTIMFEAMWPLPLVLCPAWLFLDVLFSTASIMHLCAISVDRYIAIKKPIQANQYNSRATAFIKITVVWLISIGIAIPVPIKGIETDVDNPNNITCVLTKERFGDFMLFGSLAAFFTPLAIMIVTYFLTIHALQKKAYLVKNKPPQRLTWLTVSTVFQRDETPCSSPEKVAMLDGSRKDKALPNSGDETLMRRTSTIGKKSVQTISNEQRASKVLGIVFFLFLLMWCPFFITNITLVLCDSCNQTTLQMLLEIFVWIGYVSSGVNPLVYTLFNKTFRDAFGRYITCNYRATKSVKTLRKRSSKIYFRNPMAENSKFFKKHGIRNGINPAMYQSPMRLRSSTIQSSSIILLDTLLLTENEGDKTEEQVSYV
# T5 sequence (P37288 whole entry): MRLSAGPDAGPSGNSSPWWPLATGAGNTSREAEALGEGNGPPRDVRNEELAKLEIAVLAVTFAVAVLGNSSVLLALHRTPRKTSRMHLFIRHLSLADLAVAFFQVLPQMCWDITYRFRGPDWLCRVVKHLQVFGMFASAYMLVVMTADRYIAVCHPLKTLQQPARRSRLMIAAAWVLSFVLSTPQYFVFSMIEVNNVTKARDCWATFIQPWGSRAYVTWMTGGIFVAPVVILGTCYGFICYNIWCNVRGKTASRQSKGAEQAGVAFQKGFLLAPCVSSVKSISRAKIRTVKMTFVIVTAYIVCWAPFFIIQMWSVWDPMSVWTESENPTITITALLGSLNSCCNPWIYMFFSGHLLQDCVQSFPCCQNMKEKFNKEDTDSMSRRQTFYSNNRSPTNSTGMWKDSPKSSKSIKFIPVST
structure (smiles),measurement,setting,value
CO[C@H]1C[C@@H]2CC[C@@H](C)[C@@](O)(O2)C(=O)C(=O)N2CCCC[C@H]2C(=O)O[C@H]([C@H](C)C[C@@H]2CC[C@@H](OC(=O)NCCOCCOCCOCCOCCOCCOCCOCCOCCC(=O)NCCS(=O)(=O)c3ccc(C(=O)N4CCOc5ccc(-c6ccc(N)nc6)cc5C4)c(C)c3F)[C@H](OC)C2)C[C@@H](O)[C@H](C)/C=C(\C)[C@@H](O)[C@@H](OC)C(=O)[C@H](C)C[C@H](C)/C=C/C=C/C=C/1C [compound 40],antitumor activity (tumor regressions) in NCI-H2122 CDX model,NCI-H2122 NSCLC CDX,Neither
same,KiNativ Kinase Panel Data,"Wnk1, Wnk2, Wnk4",-17.4
CO[C@H]1C[C@@H]2CC[C@@H](C)[C@@](O)(O2)C(=O)C(=O)N2CCCC[C@H]2C(=O)O[C@H]([C@H](C)C[C@@H]2CC[C@@H](OC(=O)NCCOCCOCCOCCOCCOCCOCCOCCOCCC(=O)N3CCc4cc(Cn5nc(-c6ccc7oc(N)nc7c6)c6c(N)ncnc65)ccc4C3)[C@H](OC)C2)C[C@@H](O)[C@H](C)/C=C(\C)[C@@H](O)[C@@H](OC)C(=O)[C@H](C)C[C@H](C)/C=C/C=C/C=C/1C [compound 38],inhibition at 10 µM,[1],-15.7%
same,inhibition at 10 µM,PDE3A (h),-47.2%
same,inhibition at 10 µM,[2],-2.1%
same,inhibition at 10 µM,[3],16.8%
same,inhibition at 10 µM,[4],6.5%
same,inhibition at 10 µM,[5],-26.1%
same,inhibition at 10 µM,[6],-51.3%
same,inhibition at 10 µM,[7],-8.5%
same,inhibition at 10 µM,[8],0.6%
same,inhibition at 10 µM,[9],-3.3%
same,inhibition at 10 µM,[10],0.6%
same,% Inhibition of Control Values,[11],13.7%
same,% Inhibition of Control Values,[12],1.0%
same,IC50,p-P70S6K Thr389,0.14 nM
same,inhibition at 10 µM,[13],3%
same,inhibition at 10 µM,Lck kinase (h),11.3%
same,inhibition at 10 µM,[14],12.2%
same,inhibition at 10 µM,[15],-14.5%
same,inhibition at 10 µM,[16],-4.5%
same,inhibition at 10 µM,[17],-4.6%
same,inhibition at 10 µM,[18],-3%
same,inhibition at 10 µM,[19],13.1%
same,inhibition at 10 µM,[20],0.6%
